These results are taken from patent US20240109917A1 (ACTELION PHARMACEUTICALS LTD, priority 2020, published 2024).

PDGFRβ, sequence (Q05030 32-1097): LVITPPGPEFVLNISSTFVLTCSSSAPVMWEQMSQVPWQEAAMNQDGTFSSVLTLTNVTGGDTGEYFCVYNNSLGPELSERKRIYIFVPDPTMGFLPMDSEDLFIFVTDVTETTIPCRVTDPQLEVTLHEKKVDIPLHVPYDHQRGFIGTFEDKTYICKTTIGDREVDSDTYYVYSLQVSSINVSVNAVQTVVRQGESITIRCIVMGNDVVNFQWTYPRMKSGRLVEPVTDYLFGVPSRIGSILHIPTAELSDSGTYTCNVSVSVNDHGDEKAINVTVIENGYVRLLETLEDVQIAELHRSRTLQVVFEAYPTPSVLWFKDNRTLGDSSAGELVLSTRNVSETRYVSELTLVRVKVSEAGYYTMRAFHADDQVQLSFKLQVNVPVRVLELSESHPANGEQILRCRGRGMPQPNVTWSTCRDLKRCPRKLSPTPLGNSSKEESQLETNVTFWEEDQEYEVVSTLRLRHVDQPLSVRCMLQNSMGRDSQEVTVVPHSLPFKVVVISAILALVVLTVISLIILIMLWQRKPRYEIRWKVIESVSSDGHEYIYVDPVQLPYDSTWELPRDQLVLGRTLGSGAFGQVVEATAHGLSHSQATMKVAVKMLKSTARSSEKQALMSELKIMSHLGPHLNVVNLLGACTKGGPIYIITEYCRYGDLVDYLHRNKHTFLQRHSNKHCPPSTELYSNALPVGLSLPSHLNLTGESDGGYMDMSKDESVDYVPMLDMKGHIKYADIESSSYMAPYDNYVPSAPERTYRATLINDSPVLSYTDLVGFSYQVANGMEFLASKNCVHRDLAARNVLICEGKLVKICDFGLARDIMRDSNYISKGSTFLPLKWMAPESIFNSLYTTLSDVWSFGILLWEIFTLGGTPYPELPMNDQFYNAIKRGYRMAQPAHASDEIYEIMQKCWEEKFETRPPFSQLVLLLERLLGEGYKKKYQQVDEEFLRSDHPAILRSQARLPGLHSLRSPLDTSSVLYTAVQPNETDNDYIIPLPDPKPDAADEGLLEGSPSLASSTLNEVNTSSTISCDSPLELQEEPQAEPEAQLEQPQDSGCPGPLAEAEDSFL

The first test has as its target PDGFRβ (Rattus norvegicus (Rat), UniProt Q05030). In words: PDGFRβ Cellular Assay (PDGFRb P-Y751 HTRF in A10 cells stimulated with PDGF-BB). The class given is cell-based. The settings on record: PDGFR Cellular IC50. In a few lines:
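Rat A10 cells, plated overnight, were treated with compound for 3 hours, then stimulated with PDGF-BB (working stock 100 ng/mL in 10% FBS medium). After lysis, PDGFRβ P-Y751 was detected by HTRF.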
A general note: TR-FRET usually uses a lanthanide donor and a delayed reading to cut background.
What is called IC50 is the concentration that gives 50% inhibition. In turn, `COC/C=C/c1cn2ncc(C(=O)Nc3cc(NC(=O)CN4C[C@H](C)O[C@@H](C)C4)cnc3C)c2s1` (relative stereo) [Example 367, N-(5-(2-(trans-2,6-dimethylmorpholino)acetamido)-2-methylpyridin-3-yl)-2-((E)-3-methoxyprop-1-en-1-yl)pyrazolo[5,1-b]thiazole-7-carboxamide] had an IC50 of 18.6 nM. `Cc1ncc(NC(=O)CN2CCCC[C@H]2C)cc1NC(=O)c1cnn2cc(-c3cnn(CCO)c3)sc12` [Example 33, (R)-2-(1-(2-hydroxyethyl)-1H-pyrazol-4-yl)-N-(2-methyl-5-(2-(2-methyl-piperidin-1-yl)acetamido)pyridin-3-yl)pyrazolo[5,1-b]thiazole-7-carboxamide] registered an IC50 of 10.1 nM. `COCCn1cc(-c2cn3ncc(C(=O)Nc4cc(NC(=O)CN5C[C@H]6CC[C@@H]5C6)cnc4C)c3s2)cn1` [Example 334, N-(5-(2-((1R,4S)-2-azabicyclo[2.2.1]heptan-2-yl)acetamido)-2-methylpyridin-3-yl)-2-(1-(2-methoxyethyl)-1H-pyrazol-4-yl)pyrazolo[5,1-b]thiazole-7-carboxamide] came in with an IC50 of 11.7 nM.

The same test, now with this note: read-out: PDGFR Cellular IC50.
`COc1ncccc1-c1cn2ncc(C(=O)Nc3cc(NC(=O)CN4C[C@H](C)O[C@@H](C)C4)cnc3C)c2s1` (relative stereo) [Example 368, N-(5-(2-(trans-2,6-dimethylmorpholino)acetamido)-2-methylpyridin-3-yl)-2-(2-methoxypyridin-3-yl)pyrazolo[5,1-b]thiazole-7-carboxamide]: the IC50 turned out to be 3.7 nM. On the same count and under the same terms, next, `Cc1ncc(NC(=O)CN2C[C@H](C)O[C@@H](C)C2)cc1NC(=O)c1cnn2cc(-c3c[nH]nc3C)sc12` (relative stereo) [Example 371, N-(5-(2-(trans-2,6-dimethylmorpholino)acetamido)-2-methylpyridin-3-yl)-2-(3-methyl-1H-pyrazol-4-yl)pyrazolo[5,1-b]thiazole-7-carboxamide]: 29.3 nM. Take `Cc1ncc(NC(=O)CN2C[C@H](C)O[C@@H](C)C2)cc1NC(=O)c1cnn2cc(-c3cnc(N)c(F)c3)sc12` (relative stereo) [Example 372, 2-(6-amino-5-fluoropyridin-3-yl)-N-(5-(2-(trans-2,6-dimethylmorpholino)acetamido)-2-methylpyridin-3-yl)pyrazolo[5,1-b]thiazole-7-carboxamide]: the IC50 was determined as 21.2 nM. Still for that read-out and setting: next, `Cc1ncc(NC(=O)CN2C[C@H](C)O[C@@H](C)C2)cc1NC(=O)c1cnn2cc(-c3c(C)n[nH]c3C)sc12` (relative stereo) [Example 373, 2-(3,5-dimethyl-1H-pyrazol-4-yl)-N-(5-(2-(trans-2,6-dimethylmorpholino)acetamido)-2-methylpyridin-3-yl)pyrazolo[5,1-b]thiazole-7-carboxamide]: 56.7 nM; `Cc1ncc(NC(=O)CN2C[C@H](C)O[C@@H](C)C2)cc1NC(=O)c1cnn2cc(-c3cc[nH]n3)sc12` (relative stereo) [Example 374, N-(5-(2-(trans-2,6-dimethylmorpholino)acetamido)-2-methylpyridin-3-yl)-2-(1H-pyrazol-3-yl)pyrazolo[5,1-b]thiazole-7-carboxamide]: 41.3 nM. As to `Cc1ncc(NC(=O)CN2C[C@H](C)O[C@@H](C)C2)cc1NC(=O)c1cnn2cc(-c3cnn4c3OCCC4)sc12` (relative stereo) [Example 375, 2-(6,7-dihydro-5H-pyrazolo[5,1-b][1,3]oxazin-3-yl)-N-(5-(2-(trans-2,6-dimethylmorpholino)acetamido)-2-methylpyridin-3-yl)pyrazolo[5,1-b]thiazole-7-carboxamide], the IC50 was determined as 10.2 nM. Still for that read-out and setting: next, `Cc1ncc(NC(=O)CN2C[C@@H](CO)O[C@@H](C)C2)cc1NC(=O)c1cnn2cc(-c3cnn(C)c3)sc12` (relative stereo) [Example 378, N-(5-(2-(cis-2-(hydroxymethyl)-6-methylmorpholino)acetamido)-2-methylpyridin-3-yl)-2-(1-methyl-1H-pyrazol-4-yl)pyrazolo[5,1-b]thiazole-7-carboxamide]: 304 nM; `Cc1ncc(NC(=O)CN2C[C@H](C)O[C@@H](C)C2)cc1NC(=O)c1cnn2cc(-c3cnn(C4CC4)c3)sc12` (relative stereo) [Example 382, 2-(1-cyclopropyl-1H-pyrazol-4-yl)-N-(5-(2-(trans-2,6-dimethylmorpholino)acetamido)-2-methylpyridin-3-yl)pyrazolo[5,1-b]thiazole-7-carboxamide]: 7.6 nM.

`COc1ncccc1-c1cn2ncc(C(=O)Nc3cc(NC(=O)CN4C[C@H](C)O[C@@H](C)C4)cnc3C)c2s1` (relative stereo) [Example 384, N-(5-(2-(trans-2,6-dimethylmorpholino)acetamido)-2-methylpyridin-3-yl)-2-(2-methoxypyridin-3-yl)pyrazolo[5,1-b]thiazole-7-carboxamide]: the IC50 is 4.3 nM.

Turning to `COc1ccncc1-c1cn2ncc(C(=O)Nc3cc(NC(=O)CN4C[C@H](C)O[C@@H](C)C4)cnc3C)c2s1` (relative stereo) [Example 385, N-(5-(2-(trans-2,6-dimethylmorpholino)acetamido)-2-methylpyridin-3-yl)-2-(4-methoxypyridin-3-yl)pyrazolo[5,1-b]thiazole-7-carboxamide], the IC50 turned out to be 9.5 nM. As for `COc1cccc(-c2cn3ncc(C(=O)Nc4cc(NC(=O)CN5C[C@H](C)O[C@@H](C)C5)cnc4C)c3s2)n1` (relative stereo) [Example 386, N-(5-(2-(trans-2,6-dimethylmorpholino)acetamido)-2-methylpyridin-3-yl)-2-(6-methoxypyridin-2-yl)pyrazolo[5,1-b]thiazole-7-carboxamide], the IC50 is 3.8 nM. Still for that read-out and setting: as for `Cc1ncc(NC(=O)CN2CCC[C@H]2C)cc1NC(=O)c1cnn2cc(-c3cnn(C)c3)sc12` [Example 26, (R)-2-(1-methyl-1H-pyrazol-4-yl)-N-(2-methyl-5-(2-(2-methyl-pyrrolidin-1-yl)acetamido)pyridin-3-yl)pyrazolo[5,1-b]thiazole-7-carboxamide], the figure is 5.9 nM; as for `Cc1ncc(NC(=O)CN2CCC[C@@H]2C)cc1NC(=O)c1cnn2cc(-c3cnn(C)c3)sc12` [Example 27, (S)-2-(1-methyl-1H-pyrazol-4-yl)-N-(2-methyl-5-(2-(2-methyl-pyrrolidin-1-yl)acetamido)pyridin-3-yl)pyrazolo[5,1-b]thiazole-7-carboxamide], 6.3 nM; as for `Cc1ncc(NC(=O)CN2CCC(C)(C)C2)cc1NC(=O)c1cnn2cc(-c3cnn(CCO)c3)sc12` [Example 28, N-(5-(2-(3,3-dimethylpyrrolidin-1-yl)acetamido)-2-methylpyridin-3-yl)-2-(1-(2-hydroxyethyl)-1H-pyrazol-4-yl)pyrazolo[5,1-b]thiazole-7-carboxamide], 13.6 nM. With `Cc1ncc(NC(=O)CN2CCCC23CCC3)cc1NC(=O)c1cnn2cc(-c3cnn(CCO)c3)sc12` [Example 29, N-(5-(2-(5-azaspiro[3.4]octan-5-yl)acetamido)-2-methylpyridin-3-yl)-2-(1-(2-hydroxyethyl)-1H-pyrazol-4-yl)pyrazolo[5,1-b]thiazole-7-carboxamide], the IC50 is 5 nM. Turning to `Cc1ncc(NC(=O)CN2CCC3(CCC3)C2)cc1NC(=O)c1cnn2cc(-c3cnn(CCO)c3)sc12` [Example 30, N-(5-(2-(6-azaspiro[3.4]octan-6-yl)acetamido)-2-methylpyridin-3-yl)-2-(1-(2-hydroxyethyl)-1H-pyrazol-4-yl)pyrazolo[5,1-b]thiazole-7-carboxamide], the IC50 was determined as 16.5 nM. `Cc1ncc(NC(=O)CN2CCC3(CC2)CC3)cc1NC(=O)c1cnn2cc(-c3cnn(CCO)c3)sc12` [Example 31, N-(5-(2-(6-azaspiro[2.5]octan-6-yl)acetamido)-2-methylpyridin-3-yl)-2-(1-(2-hydroxyethyl)-1H-pyrazol-4-yl)pyrazolo[5,1-b]thiazole-7-carboxamide]: the IC50 worked out at 11.1 nM. Consider `Cc1ncc(NC(=O)CN2CCC3(CC3)C2)cc1NC(=O)c1cnn2cc(-c3cnn(CCO)c3)sc12` [Example 32, N-(5-(2-(5-azaspiro[2.4]heptan-5-yl)acetamido)-2-methylpyridin-3-yl)-2-(1-(2-hydroxyethyl)-1H-pyrazol-4-yl)pyrazolo[5,1-b]thiazole-7-carboxamide], for which the IC50 was determined as 20.5 nM. On to `COCCn1cc(-c2cn3ncc(C(=O)Nc4cc(NC(=O)CN5CC6CCC5CC6)cnc4C)c3s2)cn1` [Example 331, N-(5-(2-(2-azabicyclo[2.2.2]octan-2-yl)acetamido)-2-methylpyridin-3-yl)-2-(1-(2-methoxyethyl)-1H-pyrazol-4-yl)pyrazolo[5,1-b]thiazole-7-carboxamide], for which the IC50 was determined as 2.7 nM. `COCCn1cc(-c2cn3ncc(C(=O)Nc4cc(NC(=O)CN5CCCC56CCC6)cnc4C)c3s2)cn1` [Example 332, N-(5-(2-(5-azaspiro[3.4]octan-5-yl)acetamido)-2-methylpyridin-3-yl)-2-(1-(2-methoxyethyl)-1H-pyrazol-4-yl)pyrazolo[5,1-b]thiazole-7-carboxamide]: the IC50 worked out at 4.5 nM.

Regarding `COCCn1cc(-c2cn3ncc(C(=O)Nc4cc(NC(=O)CN5CCC56CCC6)cnc4C)c3s2)cn1` [Example 333, N-(5-(2-(1-azaspiro[3.3]heptan-1-yl)acetamido)-2-methylpyridin-3-yl)-2-(1-(2-methoxyethyl)-1H-pyrazol-4-yl)pyrazolo[5,1-b]thiazole-7-carboxamide], the IC50 stood at 3.3 nM. On to `COCCn1cc(-c2cn3ncc(C(=O)Nc4cc(NC(=O)CN5CCCC6(CC6)C5)cnc4C)c3s2)cn1` [Example 335, N-(5-(2-(5-azaspiro[2.5]octan-5-yl)acetamido)-2-methylpyridin-3-yl)-2-(1-(2-methoxyethyl)-1H-pyrazol-4-yl)pyrazolo[5,1-b]thiazole-7-carboxamide], for which the IC50 came out at 3.5 nM.
